In US20050288273A1, “Antibacterial agents” (priority 2003, published 2005):
≈ marks a conversion by molar mass, not a printed value.

Key:
[1] = test system: E. coli Tol C; experiment: Antibacterial assay (MIC), standard microtitration, Gram negative; format: cell-based; conditions: for Minimum Inhibitory Concentrations E. coli Tol C: Gram negative bacteria; for MIC: Escherichia coli, read-out: Minimum Inhibitory Concentrations E. coli Tol C
Source text: (§1) Test A—Antibacterial Assays

[2] = test system: M. catarrhalis BC3534; experiment: as above; format: cell-based; conditions: Gram negative bacteria; for MIC: Moraxella catarrhalis, BC3534, read-out: Minimum Inhibitory Concentrations M. catarrhalis BC3534
Source text: as §1

[3] = test system: H. influenzae HI3542; experiment: as above; format: cell-based; conditions: Gram negative bacteria; for MIC: Haemophilus influenzae, HI3542, read-out: Minimum Inhibitory Concentrations H. influenzae HI3542
Source text: as §1

[4] = test system: S pyogenes C203; experiment: Antibacterial assay (MIC), standard microtitration, Gram positive; format: cell-based; conditions: Gram positive bacteria; for MIC: read-out: Minimum Inhibitory Concentrations S pyogenes C203
Source text: as §1

[5] = test system: S. aureus UC-76; experiment: as above; format: cell-based; conditions: Gram positive bacteria; for MIC: Staphylococcus aureus, UC76, read-out: Minimum Inhibitory Concentrations S. aureus UC-76
Source text: as §1

[6] = test system: E. faecalis MGH-2; experiment: as above; format: cell-based; conditions: Gram positive bacteria; for MIC: Enterococcus faecalis, MGH2, read-out: Minimum Inhibitory Concentrations E. faecalis MGH-2
Source text: as §1

[7] = test system: S. aureus SA-2017; experiment: Cross resistance antibacterial assay (MIC), strain 6; format: cell-based; conditions: Staphylococcus aureus, SA2017; S. aureus SA-2017, multiple drug resistant (methicillin, ciprofloxacin); read-out: Minimum Inhibitory Concentrations in Strain 6
Source text: (§2) Test C—Cross Resistance Antibacterial Assay

[8] = test system: S. aureus SA-3528; experiment: Cross resistance antibacterial assay (MIC), strain 7; format: cell-based; conditions: Staphylococcus aureus, SA3528; S. aureus SA-3528, multiple drug resistant (MLS); read-out: Minimum Inhibitory Concentrations in Strain 7
Source text: as §2

[9] = test system: E. faeciaum EF4-3525; experiment: Cross resistance antibacterial assay (MIC), strain 4; conditions: read-out: Minimum Inhibitory Concentrations in Strain 4
Experimental: (§3) The compounds of the present invention were tested against an assortment of drug resistant organisms described below using standard microtitration techniques (Cohen, et. al., Antimicrob. Agents Chemother., 1985; 28:766; Heifetz, et. al., Antimicrob. Agents Chemother, 1974; 6:124). […] E. faeciaum EF4-3525: Vancomicin resitant strain. • 5. E. faeciaum EF4-3836: Multiple drug resitant strain (lineozolid, AZD2563-R, vancomicin, ampicillin, macrolide-R, quinolone-R, trimeothprim/sulfamethoxazole). • 6.

[10] = test system: S. pyogenes C-203; experiment: In vivo activity (mouse), median protective dose in lethal systemic infection; conditions: mice
Experimental: Test B—In Vivo Activity (Mouse)
The in vivo activity was obtained when the compounds were tested according to the procedure of Miller, et al. (Proc. Soc. Exp. Biol. Med., 1944; 57:261). The median protective dose (PD50) was determined in mice given lethal systemic infections, as depicted in Table 4.

[11] = test system: E. faeciaum EF4-3836; experiment: Cross resistance antibacterial assay (MIC), strain 5; conditions: read-out: Minimum Inhibitory Concentrations in Strain 5
Experimental: as §3

[12] = test system: E. faecalis EF-3838; experiment: Cross resistance antibacterial assay (MIC), strain 3; format: cell-based; conditions: Enterococcus faecalis, EF3838; E. faecalis EF-3838, multiple drug resistant (vancomicin, erythromycin, gentamicin); read-out: Minimum Inhibitory Concentrations in Strain 3
Source text: as §2

[13] = test system: E. faecalis EF-13524; experiment: Cross resistance antibacterial assay (MIC), strain 2; format: cell-based; conditions: Enterococcus faecalis, EF13524; E. faecalis EF-13524, vancomicin resistant strain; read-out: Minimum Inhibitory Concentrations in Strain 2
Source text: as §2

[14] = test system: S. aureus SA-3839; experiment: Cross resistance antibacterial assay (MIC), strain 8; format: cell-based; conditions: Staphylococcus aureus, SA3839; S. aureus SA-3839, multiple drug resistant (linezolid and methicillin); read-out: Minimum Inhibitory Concentrations in Strain 8
Source text: as §2

Compound	MIC [1] [µg/mL]	MIC [2] [µg/mL]	MIC [3] [µg/mL]	MIC [4] [µg/mL]	MIC [5] [µg/mL]	MIC [6] [µg/mL]	further results
CC(=O)NC[C@H]1CN(c2ccc3c(c2)-c2[nH]ncc2CCC3)C(=O)O1 [Example 1, (S)-N-[2-Oxo-3-(1,4,5,6-tetrahydro-1,2-diaza-benzo[e]azulen-9-yl)oxalidin-5-ylmethyl]acetamide]	–	–	–	–	–	–	Minimum Inhibitory Concentrations E. coli Tol C [1]: >64 µg/mL; Minimum Inhibitory Concentrations M. catarrhalis BC3534 [2]: >64 µg/mL; Minimum Inhibitory Concentrations H. influenzae HI3542 [3]: >64 µg/mL; Minimum Inhibitory Concentrations S pyogenes C203 [4]: >64 . . . μg/mL; Minimum Inhibitory Concentrations S. aureus UC-76 [5]: >64 µg/mL; Minimum Inhibitory Concentrations E. faecalis MGH-2 [6]: >64 µg/mL
CC(=O)NC[C@H]1CN(c2ccc3c(c2)CCCc2cn[nH]c2-3)C(=O)O1 [Example 3, (S)-N-[2-Oxo-3-(1,4,5,6-tetrahydro-1,2-diaza-benzo[e]azulen-8-yl)oxazolidin-5-ylmethyl]acetamide]	> 64	2 (≈ 5.88 µM)	2 (≈ 5.88 µM)	0.125 (≈ 0.367 µM)	0.5 (≈ 1.47 µM)	0.25 (≈ 0.734 µM)	MIC [7]: 1 µg/mL (≈ 2.94 µM); MIC [8]: 8 µg/mL (≈ 23.5 µM); MIC [9]: 0.5 µg/mL (≈ 1.47 µM); PD50 (median protective dose) ([10]; S. pyogenes C-203, oral): 6.4 mg/kg; PD50 (median protective dose) ([10]; S. pyogenes C-203, subcutaneous): 2.1 mg/kg; MIC [11]: 1 µg/mL (≈ 2.94 µM); MIC [12]: 0.5 µg/mL (≈ 1.47 µM); MIC [13]: 0.25 µg/mL (≈ 0.734 µM); MIC [14]: 16 µg/mL (≈ 47 µM)
CC(=O)NC[C@H]1CN(c2ccc3c(c2)-c2oncc2CCC3)C(=O)O1 [Example 4, (S)-N-[3-(5,6-dihydro-4H-1-oxa-2-aza-benzo[e]azulen-9-yl)-2-oxo-oxazolidin-5-ylmethyl]acetamide]	> 64	1 (≈ 2.93 µM)	2 (≈ 5.86 µM)	0.125 (≈ 0.366 µM)	0.5 (≈ 1.46 µM)	0.25 (≈ 0.732 µM)	–
CC(C)(C)OC(=O)NC[C@H]1CN(c2ccc3c(c2)CCCc2cn[nH]c2-3)C(=O)O1 [Example 56, (S)-[2-Oxo-3-(1,4,5,6-tetrahydro-1,2-diaza-benzo[e]azulen-8-yl)-oxazolidin-5-ylmethyl]-carbamic acid tert-butyl ester]	> 64	16 (≈ 40.2 µM)	> 64	4 (≈ 10 µM)	1 (≈ 2.51 µM)	4 (≈ 10 µM)	melting point: 85 to 100 °C
CC(=O)NC[C@H]1CN(c2ccc3c(c2)CCCc2c(-c4ccc(F)cc4)n[nH]c2-3)C(=O)O1 [Example 95, (S)-N-{3-[3-(4-Fluoro-phenyl)-1,4,5,6-tetrahydro-1,2-diaza-benzo[e]azulen-8-yl]-2-oxo-oxazolidin-5-ylmethyl}-acetamide]	> 64	1 (≈ 2.3 µM)	8 (≈ 18.4 µM)	0.5 (≈ 1.15 µM)	4 (≈ 9.21 µM)	0.5 (≈ 1.15 µM)	–
CC(=O)NC[C@H]1CN(c2ccc3c(c2)CCCc2c(-c4ccncc4)n[nH]c2-3)C(=O)O1 [Example 96, (S)-N-[2-Oxo-3-(3-pyridin-4-yl-1,4,5,6-tetrahydro-1,2-diaza-benzo[e]azulen-8-yl)-oxazolidin-5-ylmethyl]-acetamide]	> 64	2 (≈ 4.79 µM)	4 (≈ 9.58 µM)	0.25 (≈ 0.599 µM)	2 (≈ 4.79 µM)	1 (≈ 2.4 µM)	–
CC(=O)NC[C@H]1CN(c2ccc3c(c2)CCCc2c(C(F)(F)F)n[nH]c2-3)C(=O)O1 [Example 97, (S)-N-[2-Oxo-3-(3-trifluoromethyl-1,4,5,6-tetrahydro-1,2-diaza-benzo[e]azulen-8-yl)-oxazolidin-5-ylmethyl]-acetamide]	> 64	2 (≈ 4.9 µM)	> 4	0.5 (≈ 1.22 µM)	1 (≈ 2.45 µM)	1 (≈ 2.45 µM)	–
CC(=O)NC[C@H]1CN(c2ccc3c(c2)CCCc2c(-c4ccccc4)n[nH]c2-3)C(=O)O1 [Example 98, (S)-N-[2-Oxo-3-(3-phenyl-1,4,5,6-tetrahydro-1,2-diaza-benzo[e]azulen-8-yl)-oxazolidin-5-ylmethyl]-acetamide]	> 64	2 (≈ 4.8 µM)	8 (≈ 19.2 µM)	0.5 (≈ 1.2 µM)	0.5 (≈ 1.2 µM)	0.5 (≈ 1.2 µM)	–
CC(=O)NC[C@H]1CN(c2ccc3c(c2)CCCc2c(C)n[nH]c2-3)C(=O)O1 [Example 99, (S)-N-[3-(3-Methyl-1,4,5,6-tetrahydro-1,2-diaza-benzo[e]azulen-8-yl)-2-oxo-oxazolidin-5-ylmethyl]-acetamide]	> 64	4 (≈ 11.3 µM)	4 (≈ 11.3 µM)	0.5 (≈ 1.41 µM)	1 (≈ 2.82 µM)	1 (≈ 2.82 µM)	–
CC(=O)NC[C@H]1CN(c2ccc3c(c2)CCCc2cn(C)nc2-3)C(=O)O1 [Example 122, (S)-N-[3-(2-Methyl-2,4,5,6-tetrahydro-1,2-diaza-benzo[e]azulen-8-yl)-2-oxo-oxazolidin-5-ylmethyl]-acetamide]	> 64	> 64	> 64	0.5 (≈ 1.41 µM)	1 (≈ 2.82 µM)	1 (≈ 2.82 µM)	–
O=C1O[C@@H](COc2ccon2)CN1c1ccc2c(c1)CCCc1cn[nH]c1-2 [Example 158, (R)-5-(Isoxazol-3-yloxymethyl)-3-(1,4,5,6-tetrahydro-1,2-diaza-benzo[e]azulen-8-yl)-oxazolidin-2-one]	> 64	8 (≈ 21.8 µM)	> 64	1 (≈ 2.73 µM)	1 (≈ 2.73 µM)	2 (≈ 5.46 µM)	–
O=C1O[C@@H](COc2ccon2)CN1c1ccc2c(c1)CCCc1cnoc1-2 [Example 159, (R)-3-(5,6-Dihydro-4H-1-oxa-2-aza-benzo[e]azulen-8-yl)-5-(isoxazol-3-yloxymethyl)-oxazolidin-2-one]	–	–	–	2 (≈ 5.44 µM)	4 (≈ 10.9 µM)	2 (≈ 5.44 µM)	–
O=C1O[C@@H](COc2ccccn2)CN1c1ccc2c(c1)CCCc1cn[nH]c1-2 [Example 164, (R)-5-(Pyridin-2-yloxymethyl)-3-(1,4,5,6-tetrahydro-1,2-diaza-benzo[e]azulen-8-yl)-oxazolidin-2-one]	> 64	> 64	> 64	2 (≈ 5.31 µM)	4 (≈ 10.6 µM)	4 (≈ 10.6 µM)	–
O=C1O[C@@H](COc2ccccn2)CN1c1ccc2c(c1)CCCc1cnoc1-2 [Example 165, (R)-3-(5,6-Dihydro-4H-1-oxa-2-aza-benzo[e]azulen-8-yl)-5-(pyridin-2-yloxymethyl)-oxazolidin-2-one]	> 64	> 64	> 64	2 (≈ 5.3 µM)	4 (≈ 10.6 µM)	4 (≈ 10.6 µM)	–
Br.CC(=O)NC[C@H]1CN(c2ccc3c(c2)CCCc2sc(N)nc2-3)C(=O)O1 [Example 186, (S)-N-[3-(2-Amino-5,6-dihydro-4H-3-thia-1-aza-benzo[e]azulen-8-yl)-2-oxo-oxazolidin-5-ylmethyl]-acetamide hydrobromic acid salt]	> 64	8	4	1	2	1	–
CC(=O)NC[C@H]1CN(c2ccc3c(c2)CCCc2c-3nn(CCO)c2-c2ccncc2)C(=O)O1 [Example 209, (S)-N-{3-[2-(2-Hydroxy-ethyl)-3-pyridin-4-yl-2,4,5,6-tetrahydro-1,2-diaza-benzo[e]azulen-8-yl]-2-oxo-oxazolidin-5-ylmethyl}-acetamide]	> 64	> 64	32 (≈ 69.3 µM)	4 (≈ 8.67 µM)	16 (≈ 34.7 µM)	8 (≈ 17.3 µM)	–
(S)-N-[3-(2-Benzyl-2,4,5,6-tetrahydro-1,2-diaza-benzo[e]azulen-8-yl)-2-oxo-oxazolidin-5-ylmethyl]-acetamide and (S)-N-[3-(1-Benzyl-1,4,5,6-tetrahydro-1,2-diaza-benzo[e]azulen-8-yl)-2-oxo-oxazolidin-5-ylmethyl]-acetamide [Example 123]	–	–	–	–	–	–	Minimum Inhibitory Concentrations E. coli Tol C [1]: >64 µg/mL; Minimum Inhibitory Concentrations M. catarrhalis BC3534 [2]: >64 µg/mL; Minimum Inhibitory Concentrations H. influenzae HI3542 [3]: >64 µg/mL
